# According to PubChem BioAssay (NCI):
#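 The concentration for 50% growth inhibition is given as GI50. Definition used: TGI = concentration required for complete inhibition of growth.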
# Legend:
# Test in all cases: NCI tumour cell line growth inhibition, 384-well format
# IGROV1 ovarian = tested on: IGROV1 ovarian
# SN12C renal = tested on: SN12C renal
# SK-OV-3 ovarian = tested on: SK-OV-3 ovarian
# HOP-92 NSCLC = tested on: HOP-92 NSCLC
# SK-MEL-5 melanoma = tested on: SK-MEL-5 melanoma
# DU-145 prostate = tested on: DU-145 prostate
# OVCAR-8 ovarian = tested on: OVCAR-8 ovarian
# NCI-H322M lung = tested on: NCI-H322M lung
# NCI/ADR-RES ovarian = tested on: NCI/ADR-RES ovarian
# SF-539 CNS = tested on: SF-539 CNS
# SK-MEL-2 melanoma = tested on: SK-MEL-2 melanoma
# SF-268 CNS = tested on: SF-268 CNS
# NCI-H460 NSCLC = tested on: NCI-H460 NSCLC
# T-47D breast = tested on: T-47D breast
# 786-0 renal = tested on: 786-0 renal
# HCT-15 colon = tested on: HCT-15 colon
# SR leukemia = tested on: SR leukemia
# CAKI-1 renal = tested on: CAKI-1 renal
# OVCAR-3 ovarian = tested on: OVCAR-3 ovarian
# UACC-257 melanoma = tested on: UACC-257 melanoma
# COLO 205 colon = tested on: COLO 205 colon
# MCF7 breast = tested on: MCF7 breast
# HCT-116 colon = tested on: HCT-116 colon
# OVCAR-5 ovarian = tested on: OVCAR-5 ovarian
# NCI-H522 lung = tested on: NCI-H522 lung
# SF-295 CNS = tested on: SF-295 CNS
# LOX IMVI melanoma = tested on: LOX IMVI melanoma
# A549 NSCLC = tested on: A549 NSCLC
# SK-MEL-28 melanoma = tested on: SK-MEL-28 melanoma
# K-562 leukemia = tested on: K-562 leukemia
# MDA-MB-231 breast = tested on: MDA-MB-231 breast
# SW-620 colon = tested on: SW-620 colon
# OVCAR-4 ovarian = tested on: OVCAR-4 ovarian
# HCC-2998 colon = tested on: HCC-2998 colon
# ACHN renal = tested on: ACHN renal
# RPMI-8226 leukemia = tested on: RPMI-8226 leukemia
# U251 glioblastoma = tested on: U251 glioblastoma
# UO-31 renal = tested on: UO-31 renal
# CCRF-CEM leukemia = tested on: CCRF-CEM leukemia
# NCI-H23 lung = tested on: NCI-H23 lung
# HL-60(TB) leukemia = tested on: HL-60(TB) leukemia
# BT-549 breast = tested on: BT-549 breast
# M14 melanoma = tested on: M14 melanoma
# NCI-H226 lung = tested on: NCI-H226 lung
# TK-10 renal = tested on: TK-10 renal
# MALME-3M melanoma = tested on: MALME-3M melanoma
# A498 renal = tested on: A498 renal
# MOLT-4 leukemia = tested on: MOLT-4 leukemia
# MDA-MB-435 melanoma = tested on: MDA-MB-435 melanoma
# RXF 393 renal = tested on: RXF 393 renal
# SNB-19 CNS = tested on: SNB-19 CNS
# HOP-62 NSCLC = tested on: HOP-62 NSCLC
# MDA-MB-468 breast = tested on: MDA-MB-468 breast
smiles,measurement,setting,value
C=C1C[C@@H]2CC[C@@]34C[C@H]5O[C@H]6[C@@H](O3)[C@H]3O[C@H](CC[C@@H]3O[C@H]6[C@@H]5O4)CC(=O)C[C@@H]3[C@@H](OC)[C@@H](C[C@H](O)CN)O[C@H]3C[C@H]3O[C@@H](CC[C@@H]1O2)C[C@@H](C)C3=C,GI50,IGROV1 ovarian,< 10 nM
same,TGI,IGROV1 ovarian,> 100000 nM
same,GI50,SN12C renal,< 10 nM
same,TGI,SN12C renal,> 100000 nM
same,GI50,SK-OV-3 ovarian,< 10 nM
same,TGI,SK-OV-3 ovarian,84.9 nM
same,GI50,HOP-92 NSCLC,< 10 nM
same,TGI,HOP-92 NSCLC,52.8 nM
same,GI50,SK-MEL-5 melanoma,< 10 nM
same,TGI,SK-MEL-5 melanoma,< 10 nM
same,GI50,DU-145 prostate,< 10 nM
same,TGI,DU-145 prostate,< 10 nM
same,GI50,OVCAR-8 ovarian,< 10 nM
same,TGI,OVCAR-8 ovarian,27.6 nM
same,GI50,NCI-H322M lung,< 10 nM
same,TGI,NCI-H322M lung,> 100000 nM
same,GI50,NCI/ADR-RES ovarian,1900 nM
same,TGI,NCI/ADR-RES ovarian,5950 nM
same,GI50,SF-539 CNS,< 10 nM
same,TGI,SF-539 CNS,< 10 nM
same,GI50,SK-MEL-2 melanoma,< 10 nM
same,TGI,SK-MEL-2 melanoma,< 10 nM
same,GI50,SF-268 CNS,< 10 nM
same,TGI,SF-268 CNS,40 nM
same,GI50,NCI-H460 NSCLC,< 10 nM
same,TGI,NCI-H460 NSCLC,< 10 nM
same,GI50,T-47D breast,< 10 nM
same,TGI,T-47D breast,> 100000 nM
same,GI50,786-0 renal,< 10 nM
same,TGI,786-0 renal,389 nM
same,GI50,HCT-15 colon,69 nM
same,TGI,HCT-15 colon,3500 nM
same,GI50,SR leukemia,< 10 nM
same,TGI,SR leukemia,< 10 nM
same,GI50,CAKI-1 renal,< 10 nM
same,TGI,CAKI-1 renal,> 100000 nM
same,GI50,OVCAR-3 ovarian,< 10 nM
same,TGI,OVCAR-3 ovarian,< 10 nM
same,GI50,UACC-257 melanoma,< 10 nM
same,TGI,UACC-257 melanoma,85300 nM
same,GI50,COLO 205 colon,< 10 nM
same,TGI,COLO 205 colon,16.6 nM
same,GI50,MCF7 breast,< 10 nM
same,TGI,MCF7 breast,596 nM
same,GI50,HCT-116 colon,< 10 nM
same,TGI,HCT-116 colon,219 nM
same,GI50,OVCAR-5 ovarian,< 10 nM
same,TGI,OVCAR-5 ovarian,> 100000 nM
same,GI50,NCI-H522 lung,< 10 nM
same,TGI,NCI-H522 lung,< 10 nM
same,GI50,SF-295 CNS,22.9 nM
same,TGI,SF-295 CNS,246 nM
same,GI50,LOX IMVI melanoma,< 10 nM
same,TGI,LOX IMVI melanoma,43.3 nM
same,GI50,A549 NSCLC,< 10 nM
same,TGI,A549 NSCLC,186 nM
same,GI50,SK-MEL-28 melanoma,< 10 nM
same,TGI,SK-MEL-28 melanoma,> 100000 nM
same,GI50,K-562 leukemia,< 10 nM
same,TGI,K-562 leukemia,12.9 nM
same,GI50,MDA-MB-231 breast,< 10 nM
same,TGI,MDA-MB-231 breast,165 nM
same,GI50,SW-620 colon,< 10 nM
same,TGI,SW-620 colon,> 100000 nM
same,GI50,OVCAR-4 ovarian,< 10 nM
same,TGI,OVCAR-4 ovarian,974 nM
same,GI50,HCC-2998 colon,< 10 nM
same,TGI,HCC-2998 colon,< 10 nM
same,GI50,ACHN renal,73.3 nM
same,TGI,ACHN renal,> 100000 nM
same,GI50,RPMI-8226 leukemia,< 10 nM
same,TGI,RPMI-8226 leukemia,< 10 nM
same,GI50,U251 glioblastoma,< 10 nM
same,TGI,U251 glioblastoma,14.1 nM
same,GI50,UO-31 renal,225 nM
same,TGI,UO-31 renal,> 100000 nM
same,GI50,CCRF-CEM leukemia,< 10 nM
same,TGI,CCRF-CEM leukemia,< 10 nM
same,GI50,NCI-H23 lung,< 10 nM
same,TGI,NCI-H23 lung,< 10 nM
same,GI50,HL-60(TB) leukemia,< 10 nM
same,TGI,HL-60(TB) leukemia,< 10 nM
same,GI50,BT-549 breast,< 10 nM
same,TGI,BT-549 breast,< 10 nM
same,GI50,M14 melanoma,< 10 nM
same,TGI,M14 melanoma,2720 nM
same,GI50,NCI-H226 lung,< 10 nM
same,TGI,NCI-H226 lung,206 nM
same,GI50,TK-10 renal,52.8 nM
same,TGI,TK-10 renal,> 100000 nM
same,GI50,MALME-3M melanoma,< 10 nM
same,TGI,MALME-3M melanoma,> 100000 nM
same,GI50,A498 renal,< 10 nM
same,TGI,A498 renal,1100 nM
same,GI50,MOLT-4 leukemia,< 10 nM
same,TGI,MOLT-4 leukemia,< 10 nM
same,GI50,MDA-MB-435 melanoma,< 10 nM
same,TGI,MDA-MB-435 melanoma,< 10 nM
same,GI50,RXF 393 renal,< 10 nM
same,TGI,RXF 393 renal,< 10 nM
same,GI50,SNB-19 CNS,< 10 nM
same,TGI,SNB-19 CNS,41.2 nM
same,GI50,HOP-62 NSCLC,< 10 nM
same,TGI,HOP-62 NSCLC,3340 nM
same,GI50,MDA-MB-468 breast,< 10 nM
same,TGI,MDA-MB-468 breast,< 10 nM
